According to patent US20110135651A1, “METHOD AND COMPOSITION FOR ENHANCING HEMATOPOIETIC STEM CELL MOBILIZATION” (Children's Hospital Medical Center, priority 2008, published 2011):

Key:
Cdc42 = assay: Rho-GTPase effector domain pull-down assay, Cdc42; type: in vivo, mice; details: for Cdc42 activity (GTP-bound form) in BM cells: in vivo in G-CSF treated animals, compared to G-CSF treatment alone (FIG. 7c, 7d)
Description: (§1) Rho-GTPase effector domain pull-down assays. Relative levels of GTP-bound RAC1, RAC2 and CDC42 were determined by an effector pull-down assay. Briefly, low density bone marrow cells (1×107) were lysed in a Mg2+ lysis/wash buffer (Upstate cell signaling solutions) containing 10% glycerol, 25 mM sodium fluoride, 1 mM sodium orthovanadate and a protease inhibitor cocktail (Roche Diagnostics). Samples were incubated with PAK-1 binding domain/agarose beads and bound (activated) as well as unbound (non-activated) Rho GTPases were probed by immunoblotting with antibodies specific for RAC1 (Upstate), RAC2 (Novus Biologicals) and CDC42 (BD Biosciences). Activated protein was normalized to total protein and β-actin (Sigma) and the relative amount was quantified by densitometry.

hematopoietic stem cells = assay: Competitive transplantation of mobilized peripheral blood to measure stem cell frequency (donor chimerism); type: in vivo, mice
Description: Transplantations/Competitive transplantations. BM cells were harvested and pooled from the tibia and the femur of 6-8 week old mice (donor) as well as B6.5JL(BoyJ) (competitor) mice. […] BM cells were subsequently transplanted into the retro-orbital sinus in a volume of 200 μA in IMDM/2% FCS.
Flow cytometry. Immunostaining and flow cytometry analyses were performed according to standard procedures and analyzed on a FacsCanto flow cytometer (BD Biosciences). Anti-Ly5.2 (clone 104, BD Biosciences, FITC conjugated) and anti-Ly5.1 (clone A20, BD Biosciences, PE conjugated) monoclonal antibodies were used to distinguish donor from recipient and competitor cells. For lineage analysis in hematopoietic tissues, anti-CD3ε (clone 145-2C11, PE-Cy7 conjugated), anti-B220 (clone RA3-6B2, APC conjugated), anti-CD11b (clone M1/70, APC-Cy7 conjugated) and anti-Gr-1 (clone RB6-8C5, APC-Cy7 conjugated, all from BD Biosciences) were used.

Rac2 = assay: Rho-GTPase effector domain pull-down assay, Rac2; design: species or system mice; details: in vivo in G-CSF treated animals (data not shown)
Description: as §1

Rac1 = assay: Rho-GTPase effector domain pull-down assay, Rac1; design: species or system mice; details: in vivo in G-CSF treated animals (data not shown)
Description: as §1

[1] = test system: hematopoietic stem and progenitor cells (HSPCs); assay: G-CSF induced HSPC mobilization, colony forming cell (CFC) assay of peripheral blood; type: in vivo, mice
Description: As mobilization efficiency of HSPC is a quantitative trait, quantitative trait locus (QTL) analysis was chosen as an approach to identify regulators of mobilization efficiency. Mice were mobilized with huG-CSF (Amgen) at 12.5 μg/ml in PBS/0.1% BSA and administered i.p. at 100 μg/kg/day once a day for 5 days and animals were analyzed on day 6. Murine recombinant EGF (0.2-3.6 μg/g) (Prepro tech, Rocky Hill, N.J.) was dissolved in PBS and administered i.p. on the last day of the G-CSF regimen. Erlotinib (2.5-100 mg/kg) was dissolved in methylcellulose and administered by gavage on day 3, 4, and 5 of the G-CSF regimen. A specific Cdc42 inhibitor (0.5 mg/ml) was dissolved in PBS containing 15% ethanol and administered by tail vain 18 h after the last G-CSF injection. Mobilization efficiency was determined with HSPC obtained approximately 14-16 hours after the last injection received by the group of mice.
Colony forming cell assays. 150 μl of peripheral blood (PB) was added to Hank's balanced salt solution (HBSS) and mixed with 4 ml of methylcellulose (Stem Cell Technologies) containing 50 ng/ml rm SCF, 10 ng/ml rm IL-3 and 10 ng/ml rh JL-6 and incubated at 37° C. Samples were plated in triplicate in 6 well plates (Falcon) and colonies of more than 50 cells were counted between 7 to 10 days. CFC counts were also determined in spleen (1×10^5) using the same protocol. The results are presented as mean±s.d. A paired student's t-test was used to determine the significance of the difference between means of two groups. Values were considered significant when p<0.05.

[2] = test system: BM derived progenitor cells adhering to FBMD-1 stromal cells; assay: CAFC progenitor adhesion assay on FBMD-1 stroma; type: cell-based, mice; details: BM derived HSPCs from G-CSF treated animals
Description: CAFC progenitor adhesion assays. FBMD-1 cells were seeded in IMDM supplemented with 15% FCS and 5% horse serum (Gibco) at a density of 1000 cells per well in a 96 well plate. BM cells were plated onto the FBMD-1 stroma cell line at 3000, 1500, 750 and 375 cells per well at 15 wells per cell concentration in CAFC medium (IMDM, supplemented with 20% horse serum (Gibco) and 10^−5 M hydrocortisone (Sigma)). To determine progenitor cell adhesion, non-adherent cells were washed off the FBMD-1 stroma after 2 hours and fresh CAFC medium was added to each well. The frequency of total HSPCs and adherent HSPCs was determined by counting the frequency of cobblestone areas at day 7 on the FBMD-1 stroma cell line.

[3] = target: epidermal growth factor receptor (EGFR), mouse, wild type, on hematopoietic stem and progenitor cells (mouse) (UniProt Q01279); assay: cell-based or functional assay
EGFR = EGFR expression in BM HSPCs by real time Q-RT-PCR; type: in vivo, mice; details: upon G-CSF treatment (FIG. 3a)
From the text: Whole genome expression analysis. RNA from sorted Lin-C-Kit+ cells were obtained with the Qiagen RNA assay micro kit according to the protocol of the manufacturer. RNA was subsequently linear amplified by the Affymetrix core at CCHMC and reverse transcribed with a Nugene Kit according to the manufacturer protocol. Labeled cDNA was then hybridized to and MOE430 array (Affymetrix) and raw expression data collected. Affymetrix .CEL files of the respective microarrays were imported into the statistical programming language R (www.r-project.org) using the affy Bioconductor (www.bioconductor.org) package. The data were then pre-processed (log2-transformed, background corrected, quantile normalized and summarized) using the rma function of the affy package. Affymetrix probes were filtered and re-grouped during summarization according to RefSeq annotation using custom chip description files (.CDF) for the MOE430 array provided by the Molecular and Behavioral Neuroscience Institute of the University of Michigan (Microarray Lab), http://brainarray.mbni.med.umich.edu/Brainarray/Database/CustomCDF/genomic_curated_CDF.asp). The expression level of the EGFR was subsequently confirmed by a Taqman real time PCR assay kit from Applied Biosystems (Assay ID: Mm01187863_g1)

## C#Cc1cccc(Nc2ncnc3cc(OCCOC)c(OCCOC)cc23)c1 [Erlotinib, reference compound]
Cdc42
  Cdc42 activity (GTP-bound form) in BM cells: significant decrease
Hematopoietic stem cells; Erlotinib 2.5-10 mg/kg over last 3 days of G-CSF regimen vs G-CSF, competitive transplantation read-out
  mobilization efficiency of stem cells: significantly increased
Rac2
  level of the GTP bound form of Rac2: did not detect a significant change
Rac1
  level of the GTP bound form of Rac1: did not detect a significant change
[1]; Erlotinib 2.5-10 mg/kg over last 3 days of G-CSF regimen vs G-CSF (FIG. 5e)
  mobilization efficiency of progenitor cells: significantly increased
[2]; Erlotinib 10 mM (FIG. 7b)
  adhesion of progenitor cells to stroma: significantly reduced adhesion

## Murine recombinant EGF (epidermal growth factor) (from UniProt P01132 977-1029) (ligand)
[3]
  mobilization efficiency of progenitor cells in G-CSF stimulated animals (CFC in peripheral blood) (fold reduction): 4
  stem cell mobilization to PB (donor chimerism 3 months after competitive transplant): < 5 fold less

## EGF: Murine recombinant EGF (epidermal growth factor), activating ligand of EGFR
Cdc42
  Cdc42 activity (GTP-bound form) in BM cells: significant increase
Hematopoietic stem cells; G-CSF plus EGF (0.8 μg/g) vs G-CSF alone, equal volumes of blood (FIG. 3f)
  reduction of contribution to chimerism 3 months post transplant (stem cells mobilized to PB): approx. 5 fold
Rac2
  level of the GTP bound form of Rac2: did not detect a significant change
Rac1
  level of the GTP bound form of Rac1: did not detect a significant change
[1]; G-CSF stimulated animals, single dose EGF 0.8 μg/g on last day of G-CSF regimen (FIG. 3b)
  reduction of mobilization efficiency of progenitor cells: approx. 4 fold
[1]; G-CSF stimulated animals, single dose EGF 0.2-1.0 on last injection day of G-CSF regimen (FIG. 3b)
  mobilization efficiency of progenitor cells: dose-dependent inhibition
[1]; congenic line 1804 compared to B6 mice, G-CSF and EGF treatment (FIG. 3g)
  sensitivity to inhibition of mobilization efficiency by EGF: significantly less sensitive
[1]; non-G-CSF treated animals, EGF dose range tested (data not shown)
  spontaneous mobilization: did not restrict
[1]; wa2+/- mice, G-CSF plus single injection of EGF on day 5 vs G-CSF alone (FIG. 3d)
  mobilization efficiency: unaffected
[1]; wild type mice, G-CSF plus single injection of EGF on day 5 vs G-CSF alone (FIG. 3c)
  mobilization efficiency: significantly reduced
[2]; EGF 200 ng/ml (FIG. 7a)
  adhesion of progenitor cells to stroma: significantly enhanced adhesion

B1: G-CSF: huG-CSF (Amgen), granulocyte colony-stimulating factor (protein, UniProt P09919 31-207, looked up)
Granulocyte …: TPLGPASSLPQSFLLKCLEQVRKIQGDGAALQEKLVSECATYKLCHPEELVLLGHSLGIPWAPLSSCPSQALQLAGCLSQLHSGLFLYQGLLQALEGISPELGPTLDTLQLDVADFATTIWQQMEELGMAPALQPTQGAMPAFASAFQRRAGGVLVASHLQSFLEVSYRVLRHLAQP
Cdc42; B6 animals, G-CSF treated relative to control non-treated animals (FIG. 7e)
  Cdc42 activity in LD-BM cells: significantly increased
Cdc42; line 1804 animals upon G-CSF treatment (FIG. 7e)
  Cdc42 activity in LD-BM cells: not being altered
EGFR
  EGFR expression levels in BM HSPCs: decreased
